Data taken from patent publication US20180325930A1, “Use of Oligosaccharide Compounds for Activating Angiogenesis” (Urgo Recherche Innovation et Developpement, priority 2015, published 2018).

Test system: chick embryo chorioallantoic membranes (CAM)
Assay: chicken ex ovo chorioallantoic membrane (CAM) angiogenesis model
Type: in vivo
Text: This consists of a vascularised membrane found in bird or reptile eggs. In mammals, this structure forms the placenta. The model for the study will be a chicken ex OVO (without the shell) CAM model.
Fertilised chicken eggs were used.
For the study, VEGF-A was used as the positive control.
Potassium sucrose octasulphate salt (KSOS) is presented in the form of a solution at different concentrations, buffered with PBS.
A PBS buffer solution was used as a negative control.
On receipt, the eggs are stored at 13° C. to stop the development thereof until the time of the study. The eggs are then placed in incubation in a hatcher at 37° C. to enable the development of the embryo.
At 3 days, the eggs are broken unto a weighing cup so as to remove the shell, thereby rendering the embryo and all the structures accessible for future treatment. The ex ovo embryos are then placed back in the hatcher where they will continue the in vitro development thereof.
The embryos will be treated in the vehicle (PBS only), VEGF or different concentration of KSOS.
The treatment area is delimited by a silicone ring 1 cm in diameter and 0.2 in thickness. The treatment volume is 25 μl. The treated embryos are placed back in the hatcher for 48 hours.
After 48 hours of incubation, 10% skimmed milk is injected between the CAM and the yolk to separate the 2 vascularisations and increase the contrast for an optimal photographic shot. A photo is taken of the treatment area with a NIKON AZ 1 OO, NIS-element capture software, with 0.5×4 magnification.
On the basis of these photos, a number of parameters were determined using the image analysis software: • a) the total tube length (sum of the lengths of each vessel in the image), • b) the number of segments (total number of vessels connected to a branch point), • c) the number of branch points (total number of junctions connected to a segment). • b and c are representative of the formation of new characteristic vessels of angiogenesis.

Compound	angiogenesis activation (significance with respect to VEGF-A or 100 mg/mL KSOS) (30 mg/mL, 48 hours)	vascular network visible (30 mg/mL, 48 hours)	angiogenesis activation (significance with respect to VEGF-A or 100 mg/mL KSOS) (50 mg/mL, 48 hours)	vascular network visible (50 mg/mL, 48 hours)	3 parameters measured (total tube length, number of segments, number of branch points), image analysis vs PBS (100 mg/mL, 48 hours)	angiogenesis activation compared with positive control VEGF-A (100 mg/mL, 48 hours)	vascular network observed on photos (100 mg/mL, 48 hours)	CAM vascularisation at the treatment area (overall, according to the dose) (3-100 mg/mL, 48 hours)	vascular change with respect to the negative control (PBS only), photos (from 30 mg/mL, 48 hours)	concentration from which angiogenesis activation is considered significant (inferred from results at 50 and 100 mg/mL, 70 mg/mL not tested) [mg/mL]	neovascularisation of the CAM (photos of treatment area) (VEGF 0.5 μg (20 μg/mL), 25 μl, 48 hours)	3 parameters measured (total tube length, number of segments, number of branch points), image analysis vs PBS (VEGF 0.5 μg (20 μg/mL), 48 hours)
O=S(=O)([O-])OCC1OC(OC2(COS(=O)(=O)[O-])OC(COS(=O)(=O)[O-])C(OS(=O)(=O)[O-])C2OS(=O)(=O)[O-])C(OS(=O)(=O)[O-])C(OS(=O)(=O)[O-])C1OS(=O)(=O)[O-].[K+].[K+].[K+].[K+].[K+].[K+].[K+].[K+] (stereo not drawn) [KSOS, potassium sucrose octasulphate salt]	not considered to be significant	poorly developed vascular network	not considered to be significant	poorly developed vascular network	significant increase	angiogenesis activation equivalent to that observed with VEGF-A	well-developed vascular network	increase in CAM vascularisation	slight vascular change	≥ 70		
VEGF [reference compound]											anarchic neovascularisation	significant increase
